Reference: EP1488698A1, “Compositions for descreasing intracellular inositol trisphosphate concentration and uses thereof” (priority 1995, dated 1997)
Marks after values point to notes of the source that are not given here.

Columns and labels:
[1] = test system: primary chick cortical neurons; assay: Phosphoinositide hydrolysis assay (InsP3 production) in cultured primary cortical neurons; assay type: cell-based; conditions: for Ins-P-n with Lysosphinogolipid Modulator, agonist Aspartate: 100 μM Aspartate, 20 min, neurons preincubated with 20 μM modulator (or 20 μM + 20 μM Sphingosine), washed, normalized to control = 1.00; for enhancement of InsP3 level caused by sphingosine or by metabotropic glutamate receptor agonists / InsP3 signalling: cortical neurons; for InsP3 signalling: as shown in Table 1
Experimental: The neurons were seeded in 24-well plastic tissue culture plates that had been coated with L-polylysine.
Receptor-stimulated and basal unstimulated hydrolysis of phosphoinositides was measured by the following procedure. […] The cells were then washed twice with 1 ml Dulbecco's phosphate-buffered saline (PBS) and 0.5 ml of PBS containing 4.5 g/L glucose was added. Sphingosine, psychosine, lysosulphatide, or lysosphingomyelin, prepared as the hydrochloride salt dissolved in water, were then added to produce the desired extracellular concentration in specific wells, […] The cells were then washed twice with 1 ml PBS, and pre-incubated for 15 minutes at 37°C with 0.5 ml PBS containing 10 mM LiCl and the compound to be tested was added. […] The tubes were vortexed thoroughly, then centrifuged at 500 x g for 5 minutes to separate the aqueous and chloroform phases. For each sample, a 1.5-ml aliquot of the upper (aqueous) phase was applied to a small column containing BioRad AG1X8 resin (formate form). Free [^3H]inositol and [^3H]glycerophosphoinositol were washed through the column with 5 ml of a solution containing 5 mM sodium borate and 60 mM sodium formate. The total phosphorylated [^3H] inositol fraction was eluted from the column for radiometric scintillation spectrometry analysis with 3 ml 1.0 M ammonium formate/0.1 M formic acid.
In addition, a 0.5 ml aliquot of the lower (chloroform) phase of each sample was analyzed radiometrically by scintillation spectrometry in order to determine the quantity of lipid-bound [^3H]myo-inositol. Estimation of phosphoinositide hydrolysis by phospholipase C is based upon the quantity of [^3H]inositol phosphates produced, and is expressed as the percentage of the latter relative to total free and componential [^3H]inositol (dpm ammonium formate + dpm chloroform fractions).

[2] = Lysosphingolipid loading of isolated neuronal plasma membrane (fluorescence tagging); assay type: in vitro ADME, chick; conditions: Plasma Membrane Suspension, 10 μmolar exposure
From the text: (§1) Total lipids were removed from the neuron samples by repeated extraction with chloroform:methanol (2:1, vol:vol). The lysosphingolipids were separated from total neuronal lipid in 90 ± 5 % recovery yield (n = 10) by the stepped chromatographic procedure of Van Veldhoven et al. (Anal. Biochem. 183:177-189, 1989). The recovered lysosphingolipids were stably tagged with NBDZF by the rapid procedure of Nozowa et al. (supra). The fluorescence tagged neuronal lysosphingolipids were separated in parallel with reference standards NBDZF-Sph, NBDZF-Psy, and NBDZF-Lsm on high performance silica gel thin layer chromatography plates with acetonitrile:H2O (10:0.5, vol:vol). The highly fluorescent, well separated bands were scraped from the plate. The fluorescence tagged lysosphingolipids are eluted from the scraped silica gel with methanol:1 N HCl (1:0.02, vol:vol). The fluorescence tagged lysosphingolipid eluates were quantitated against reference standards by fluorescence measurement in a Perkin-Elmer LS-5 Fluorescence Spectrometer.
Physiologically active phospholipase C is present on the endofacial portion of the plasma membrane. A procedure for examining its activity in an intact membrane is provided. The neuronal membrane preparation described below is useful for determining lysosphingolipid effects on the phosphatidylinositol kinase and phospholipase C activities in intact membranes. One hundred Petri dishes of cultured cortical neurons were incubated overnight with 50 µCi [^3H]myo-inositol per mL of culture medium. Ten Petri dish-samples of cultured neurons (1 X 10^8 neurons; 23 ± 2 mg protein, n = 15) were pooled to produce 2.4 ± 0.2 mg plasma membrane by the following procedure. The collected neurons were homogenized in 5 mL 0.32 M sucrose and centrifuged at 1000 X g for 15 minutes. The supernatant was layered on top of 2 ml 1.2 M sucrose and centrifuged at 300,000 X g for 20 minutes. The sedimented pellet was resuspended by sonication for 10 seconds in 50 mM Tris buffer (pH 7.4), containing 0.3 µM CaCl2, 1 mM MgCl2, and 0.01% ascorbic acid.
The suspended plasma membrane preparation was apportioned into 250 µl samples, each providing approximately 100 µg membrane protein. Sphingosine, psychosine, and lysosphingomyelin were added to each plasma membrane sample. […] Samples were analyzed for lysosphingolipid loading (i.e., membrane lysosphingolipid content following exposure to exogenous sphingolipid) by fluorescence tagging. Table 2 provides the results of exposure of plasma membrane samples to 10 µM lysosphingolipids. Values are reported in pmoles lysosphingolipid/mg plasma membrane protein. Values obtained for isolated plasma membrane and intact neurons are compared.

Intact neurons = assay: Lysosphingolipid loading of intact neurons (fluorescence tagging); assay type: in vitro ADME, chick; conditions: 10 μmolar exposure
From the text: as §1
Sphingolipid content of neurons exposed to sphingosine, lysocerebroside, and lysosphingomyelin was examined as follows. A Petri dish containing approximately 10^7 neurons was incubated with 5 µCi [^3H]myo-Ins in 3 ml DMEM overnight to prelabel the phosphoinositide InsP3 may contain. The neurons were washed with PBS and 3 ml of PBS containing 4.5 g/l glucose was added. Preparations of sphingosine, lysocerebroside, lysosphingomyelin (Sigma Chemical Co., St. Louis, MO) and combinations of each were prepared as the hydrochloride salt dissolved in PBS. The lysosphingolipids were added to the Petri dishes to produce a concentration ranging from 0 - 150 µM. […] Trypsinization removes non-specifically bound lysosphingolipids that may adhere to extracellular plasma membrane protein domains. Non-specific adherence between cationic micelles of lysosphingolipids and the neuronal glycocalyx is avoided by performing the experiments with lysosphingolipid concentrations below the critical micelle concentration. Neurons were analyzed for lysosphingolipid content as described above.
The suspended plasma membrane preparation was apportioned into 250 µl samples, each providing approximately 100 µg membrane protein. Sphingosine, psychosine, and lysosphingomyelin were added to each plasma membrane sample. The samples were held at room temperature for 3 hours, centrifuged at 300,000 X g for 30 minutes, and the supernatant discarded. Samples were analyzed for lysosphingolipid loading (i.e., membrane lysosphingolipid content following exposure to exogenous sphingolipid) by fluorescence tagging. Table 2 provides the results of exposure of plasma membrane samples to 10 µM lysosphingolipids. Values are reported in pmoles lysosphingolipid/mg plasma membrane protein. Values obtained for isolated plasma membrane and intact neurons are compared.

Row | Structure (SMILES) | Ins-P-n with Lysosphinogolipid Modulator, agonist Aspartate [1] | enhancement of InsP3 level caused by sphingosine or by metabotropic glutamate receptor agonists [1] | InsP3 signalling [1] | membrane lysosphingolipid content, 0 hours of incubation [2] | membrane lysosphingolipid content, 0.5 hours of incubation [2] | membrane lysosphingolipid content, 1.0 hours of incubation [2] | membrane lysosphingolipid content, 2.0 hours of incubation [2] | membrane lysosphingolipid content, 3.0 hours of incubation [2] | lysosphingolipid content, 0 hours of incubation (Intact neurons) | lysosphingolipid content, 0.5 hours of incubation (Intact neurons) | lysosphingolipid content, 1.0 hours of incubation (Intact neurons) | lysosphingolipid content, 2.0 hours of incubation (Intact neurons) | lysosphingolipid content, 3.0 hours of incubation (Intact neurons) | basal, unstimulated InsP3 level in cortical neurons [1]
1 | CCCCCCCCCCCCC/C=C/[C@@H](O)[C@@H](N)COP(=O)([O-])OCC[N+](C)(C)C [lysosphingomyelin, sphingosyl phosphorylcholine] | 1.00±0.06^e | blocked this enhancement | potently modulated InsP3 signalling | 5±1 pmoles lysosphingolipid/mg plasma membrane protein | 65±15 pmoles lysosphingolipid/mg plasma membrane protein | 110±15 pmoles lysosphingolipid/mg plasma membrane protein | 120±10 pmoles lysosphingolipid/mg plasma membrane protein | 145±25 pmoles lysosphingolipid/mg plasma membrane protein | 5±1 pmoles lysosphingolipid/mg plasma membrane protein | 8±2 pmoles lysosphingolipid/mg plasma membrane protein | 20±5 pmoles lysosphingolipid/mg plasma membrane protein | 45±5 pmoles lysosphingolipid/mg plasma membrane protein | 55±15 pmoles lysosphingolipid/mg plasma membrane protein | –
2 | CCCCCCCCCCCCC/C=C/[C@@H](O)[C@@H](N)CO[C@@H]1O[C@H](CO)[C@H](O)[C@H](O)[C@H]1O [psychosine] | 1.00±0.06^e | blocked this enhancement | potently modulated InsP3 signalling | 45±5 pmoles lysosphingolipid/mg plasma membrane protein | 75±20 pmoles lysosphingolipid/mg plasma membrane protein | 120±15 pmoles lysosphingolipid/mg plasma membrane protein | 180±15 pmoles lysosphingolipid/mg plasma membrane protein | 175±20 pmoles lysosphingolipid/mg plasma membrane protein | 25±5 pmoles lysosphingolipid/mg plasma membrane protein | 35±15 pmoles lysosphingolipid/mg plasma membrane protein | 45±10 pmoles lysosphingolipid/mg plasma membrane protein | 80±5 pmoles lysosphingolipid/mg plasma membrane protein | 80±5 pmoles lysosphingolipid/mg plasma membrane protein | –
3 | CCCCCCCCCCCCC/C=C/[C@@H](O)[C@@H](N)CO [sphingosine] | – | – | potently modulated InsP3 signalling | 105±5 pmoles lysosphingolipid/mg plasma membrane protein | 113±15 pmoles lysosphingolipid/mg plasma membrane protein | 140±15 pmoles lysosphingolipid/mg plasma membrane protein | 165±20 pmoles lysosphingolipid/mg plasma membrane protein | 175±25 pmoles lysosphingolipid/mg plasma membrane protein | 85±15 pmoles lysosphingolipid/mg plasma membrane protein | 85±20 pmoles lysosphingolipid/mg plasma membrane protein | 110±15 pmoles lysosphingolipid/mg plasma membrane protein | 105±5 pmoles lysosphingolipid/mg plasma membrane protein | 115±15 pmoles lysosphingolipid/mg plasma membrane protein | tonically enhanced
